Measured values published in patent publication US10072001B2, “Tank-binding kinase inhibitor compounds” (Gilead Sciences, Inc., priority 2014, dated 2018).

Key:
[1] = target: IKKε (Homo sapiens (Human), UniProt Q14164); assay: TR-FRET kinase assay, IKKε; type: biochemical; conditions: full length recombinant IKKε 0.3 nM, 2x Km ATP, 1 μM peptide, 240 min at 25° C.; geometric mean of minimum four determinations
Source text: Biological Assay for TBK1 and IKKs:

[2] = target: TBK1 (Homo sapiens (Human), UniProt Q9UHD2); assay: TR-FRET kinase assay, TBK1; conditions: read-out: TBK1-IC50; full length recombinant TBK1 2.5 nM, 2x Km ATP, 1 μM peptide, 240 min at 25° C.; geometric mean of minimum four determinations
TBK1, sequence (Q9UHD2 whole entry): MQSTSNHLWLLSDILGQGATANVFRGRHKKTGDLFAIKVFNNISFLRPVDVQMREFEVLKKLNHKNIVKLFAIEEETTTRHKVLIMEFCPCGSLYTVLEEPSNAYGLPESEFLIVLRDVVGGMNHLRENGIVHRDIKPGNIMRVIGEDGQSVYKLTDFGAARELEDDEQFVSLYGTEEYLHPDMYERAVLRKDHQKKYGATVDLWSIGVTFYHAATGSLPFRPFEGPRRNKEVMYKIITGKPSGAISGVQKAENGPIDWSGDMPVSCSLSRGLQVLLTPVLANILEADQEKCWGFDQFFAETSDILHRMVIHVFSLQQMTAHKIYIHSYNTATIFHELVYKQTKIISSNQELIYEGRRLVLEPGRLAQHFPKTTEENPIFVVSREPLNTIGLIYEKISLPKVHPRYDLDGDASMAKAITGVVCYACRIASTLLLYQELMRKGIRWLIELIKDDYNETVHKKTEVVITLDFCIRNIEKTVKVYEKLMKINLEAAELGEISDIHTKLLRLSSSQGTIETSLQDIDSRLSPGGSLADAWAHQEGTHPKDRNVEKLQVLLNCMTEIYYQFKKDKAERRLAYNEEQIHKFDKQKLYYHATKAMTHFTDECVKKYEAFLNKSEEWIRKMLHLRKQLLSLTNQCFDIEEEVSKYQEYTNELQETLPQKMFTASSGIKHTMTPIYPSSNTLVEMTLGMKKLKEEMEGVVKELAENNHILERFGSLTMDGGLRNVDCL

IKKε, sequence (Q14164 whole entry): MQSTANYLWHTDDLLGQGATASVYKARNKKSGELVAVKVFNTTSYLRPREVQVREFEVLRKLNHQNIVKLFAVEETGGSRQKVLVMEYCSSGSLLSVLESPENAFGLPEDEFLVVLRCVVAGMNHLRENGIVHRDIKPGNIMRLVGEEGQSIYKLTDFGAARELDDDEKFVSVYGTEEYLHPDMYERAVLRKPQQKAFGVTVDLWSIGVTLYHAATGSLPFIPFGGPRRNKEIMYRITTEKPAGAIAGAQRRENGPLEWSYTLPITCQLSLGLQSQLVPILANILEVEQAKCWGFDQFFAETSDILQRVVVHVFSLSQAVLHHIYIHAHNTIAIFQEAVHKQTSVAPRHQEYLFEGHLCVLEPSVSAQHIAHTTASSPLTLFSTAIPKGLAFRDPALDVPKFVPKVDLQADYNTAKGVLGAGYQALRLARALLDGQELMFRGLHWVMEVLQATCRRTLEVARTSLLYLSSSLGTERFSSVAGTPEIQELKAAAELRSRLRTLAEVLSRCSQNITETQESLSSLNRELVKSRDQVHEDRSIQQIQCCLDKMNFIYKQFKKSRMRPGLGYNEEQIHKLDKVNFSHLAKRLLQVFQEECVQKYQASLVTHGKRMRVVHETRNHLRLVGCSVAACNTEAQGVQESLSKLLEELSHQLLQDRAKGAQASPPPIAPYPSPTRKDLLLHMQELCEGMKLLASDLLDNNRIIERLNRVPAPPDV

| Compound | IC50 [1] | IC50 [2] |
| --- | --- | --- |
| N#Cc1cc(-c2ncnc3[nH]c(-c4ccc(N5CCOCC5)cc4)nc23)ccc1O[C@@H]1CCNC1 [Example 207, (R)-5-(8-(4-morpholinophenyl)-9H-purin-6-yl)-2-(pyrrolidin-3-yloxy)benzonitrile] | 113 nM | 15.8 nM |
| N#Cc1cc(-c2ccnc3[nH]c(-c4ccc5c(c4)C(=O)NC5)cc23)ccc1OC1CCOCC1 [Example 74, 5-(2-(3-oxoisoindolin-5-yl)-1H-pyrrolo[2,3-b]pyridin-4-yl)-2-((tetrahydro-2H-pyran-4-yl)oxy)benzonitrile] | > 1000 nM | 9.62 nM |
| CC(C)(O)c1ccc(-c2cc3c(-c4ccc(OC5CCOCC5)c(C#N)c4)c(F)cnc3[nH]2)cc1 [Example 173, 5-(5-fluoro-2-(4-(2-hydroxypropan-2-yl)phenyl)-1H-pyrrolo[2,3-b]pyridin-4-yl)-2-((tetrahydro-2H-pyran-4-yl)oxy)benzonitrile] | 115 nM | 15.6 nM |
| N#Cc1cc(-c2ccnc3[nH]c(-c4ccc(N5CCOCC5)cc4)cc23)ccc1F [Example 58, 2-fluoro-5-(2-(4-morpholinophenyl)-1H-pyrrolo[2,3-b]pyridin-4-yl)benzonitrile] | > 1000 nM | 6.06 nM |
| N#Cc1cc(-c2ccnc3[nH]c(-c4cc5ccccc5[nH]4)cc23)ccc1OC1CCOCC1 [Example 38] | 76.8 nM | 32.5 nM |
| N#Cc1cc(-c2ncnc3[nH]c(-c4ccc(N5CCOCC5)c(F)c4)nc23)ccc1OC1CCOCC1 [Example 242, 5-(8-(3-fluoro-4-morpholinophenyl)-9H-purin-6-yl)-2-((tetrahydro-2H-pyran-4-yl)oxy)benzonitrile] | 1000 nM | 3.33 nM |
| N#Cc1cc(-c2ccnc3[nH]c(-c4ccc(-n5cccn5)cc4)cc23)ccc1OC1CCOCC1 [Example 177, 5-(2-(4-(1H-pyrazol-1-yl)phenyl)-1H-pyrrolo[2,3-b]pyridin-4-yl)-2-((tetrahydro-2H-pyran-4-yl)oxy)benzonitrile] | 1000 nM | 33.5 nM |
| N#Cc1cc(-c2ccnc3[nH]c(-c4ccc(N5CCOCC5)cc4)cc23)ccc1OC1CN(C(=O)CO)C1 [Example 154, 2-((1-(2-hydroxyacetyl)azetidin-3-yl)oxy)-5-(2-(4-morpholinophenyl)-1H-pyrrolo[2,3-b]pyridin-4-yl)benzonitrile] | 146 nM | 32.4 nM |
| N#Cc1cc(-c2ncnc3[nH]c(-c4ccc(C5CCN(CC(F)(F)F)CC5)cc4)nc23)ccc1OC1CCNCC1 [Example 261, 2-(piperidin-4-yloxy)-5-(8-(4-(1-(2,2,2-trifluoroethyl)piperidin-4-yl)phenyl)-9H-purin-6-yl)benzonitrile] | 96 nM | 37.1 nM |
| N#Cc1cc(-c2ccnc3[nH]c(C(=O)N4CCOCC4)cc23)ccc1OC1CCOCC1 [Example 116, 5-(2-(morpholine-4-carbonyl)-1H-pyrrolo[2,3-b]pyridin-4-yl)-2-((tetrahydro-2H-pyran-4-yl)oxy)benzonitrile] | 667 nM | 1000 nM |
| N#Cc1cc(-c2ccnc3[nH]c(C4=CCNC4)cc23)ccc1OC1CCOCC1 [Example 37, 5-(2-(2,5-dihydro-1H-pyrrol-3-yl)-1H-pyrrolo[2,3-b]pyridin-4-yl)-2-((tetrahydro-2H-pyran-4-yl)oxy)benzonitrile] | 46.3 nM | 13.4 nM |
| Cn1nccc1-c1cc2c(-c3ccc(OC4CCOCC4)c(C#N)c3)ccnc2[nH]1 [Example 181, 5-(2-(1-methyl-1H-pyrazol-5-yl)-1H-pyrrolo[2,3-b]pyridin-4-yl)-2-((tetrahydro-2H-pyran-4-yl)oxy)benzonitrile] | 34.8 nM | 23.9 nM |
| N#Cc1cc(-c2ncnc3[nH]c(-c4ccc(N5CCOCC5)cc4)nc23)ccc1OC1CCOCC1 [Example 201, 5-(8-(4-morpholinophenyl)-9H-purin-6-yl)-2-((tetrahydro-2H-pyran-4-yl)oxy)benzonitrile] | 19.7 nM | 3 nM |

Continued by falling IC50 [1], values first:

| IC50 [1] | IC50 [2] | Compound |
| --- | --- | --- |
| 33.8 nM | 3.82 nM | N#Cc1cc(-c2ncnc3[nH]c(-c4ccc(N5CCOCC5)cc4)cc23)ccc1OC1CCS(=O)(=O)CC1 [Example 240, 2-((1,1-dioxidotetrahydro-2H-thiopyran-4-yl)oxy)-5-(6-(4-morpholinophenyl)-7H-pyrrolo[2,3-d]pyrimidin-4-yl)benzonitrile] |
| 19 nM | 4.94 nM | N#Cc1cc(-c2ncnc3[nH]c(-c4ccc(N5CCOCC5)cc4)cc23)ccc1O[C@@H]1CCNC1 [Example 106, (R)-5-(6-(4-morpholinophenyl)-7H-pyrrolo[2,3-d]pyrimidin-4-yl)-2-(pyrrolidin-3-yloxy)benzonitrile] |
| 18.6 nM | 9.25 nM | N#Cc1nc(-c2ccnc3[nH]c(-c4ccc(N5CCOCC5)cc4)nc23)ccc1OC1CCOCC1 [Example 304, 6-(2-(4-morpholinophenyl)-3H-imidazo[4,5-b]pyridin-7-yl)-3-((tetrahydro-2H-pyran-4-yl)oxy)picolinonitrile] |
| 18.1 nM | 25.1 nM | N#Cc1cc(-c2ccnc3[nH]c(-c4cccc(N5CCOCC5)c4)nc23)ccc1OC1CCOCC1 [Example 308, 5-(2-(3-morpholinophenyl)-3H-imidazo[4,5-b]pyridin-7-yl)-2-((tetrahydro-2H-pyran-4-yl)oxy)benzonitrile] |
| 17.4 nM | 2.77 nM | CC(C)(O)c1ccc(-c2cc3c(-c4ccc(OC5CCOCC5)c(C#N)c4)ncnc3[nH]2)cn1 [Example 129, 5-(6-(6-(2-hydroxypropan-2-yl)pyridin-3-yl)-7H-pyrrolo[2,3-d]pyrimidin-4-yl)-2-((tetrahydro-2H-pyran-4-yl)oxy)benzonitrile] |
| 15.5 nM | 3.33 nM | N#Cc1cc(-c2ccnc3[nH]c(-c4ccc(N5CCOCC5)cc4)cc23)ccc1N1CC(O)C1 [Example 193, 2-(3-hydroxyazetidin-1-yl)-5-(2-(4-morpholinophenyl)-1H-pyrrolo[2,3-b]pyridin-4-yl)benzonitrile] |
| 13.8 nM | 3.89 nM | N#Cc1nc(-c2ccnc3[nH]c(-c4ccc(N5CCOCC5)cc4)cc23)ccc1OC1CCOCC1 [Example 86, 6-(2-(4-morpholinophenyl)-1H-pyrrolo[2,3-b]pyridin-4-yl)-3-((tetrahydro-2H-pyran-4-yl)oxy)picolinonitrile] |
| 12.4 nM | 5.68 nM | COc1ccc(-c2cc3c(-c4ccc(OC5CCN(C(=O)CO)CC5)c(C#N)c4)ncnc3[nH]2)c(C)c1 [Example 131, 2-((1-(2-hydroxyacetyl)piperidin-4-yl)oxy)-5-(6-(4-methoxy-2-methylphenyl)-7H-pyrrolo[2,3-d]pyrimidin-4-yl)benzonitrile] |
| 10.6 nM | 6.4 nM | N#Cc1cc(-c2ncnc3[nH]c(-c4cccc(C(N)=O)c4)cc23)ccc1OC1CCOCC1 [Example 171, 3-(4-(3-cyano-4-((tetrahydro-2H-pyran-4-yl)oxy)phenyl)-7H-pyrrolo[2,3-d]pyrimidin-6-yl)benzamide] |
| 6.99 nM | 3.09 nM | N#Cc1cc(-c2ccnc3[nH]c(-c4ccc(C5(O)COC5)cc4)cc23)ccc1OC1CCOCC1 [Example 8, 5-(2-(4-(3-hydroxyoxetan-3-yl)phenyl)-1H-pyrrolo[2,3-b]pyridin-4-yl)-2-((tetrahydro-2H-pyran-4-yl)oxy)benzonitrile] |
| 6.42 nM | 3.75 nM | CS(=O)(=O)c1ccc(-c2cc3c(-c4ccc(OC5CCOCC5)c(C#N)c4)ccnc3[nH]2)cc1 [Example 42, 5-(2-(4-(methylsulfonyl)phenyl)-1H-pyrrolo[2,3-b]pyridin-4-yl)-2-((tetrahydro-2H-pyran-4-yl)oxy)benzonitrile] |
| 5.39 nM | 1.33 nM | N#Cc1cc(-c2ncnc3[nH]c(-c4ccc(C(=O)N5CCCC5)cc4)cc23)ccc1OC1CCOCC1 [Example 185, 5-(6-(4-(pyrrolidine-1-carbonyl)phenyl)-7H-pyrrolo[2,3-d]pyrimidin-4-yl)-2-((tetrahydro-2H-pyran-4-yl)oxy)benzonitrile] |
| 4.99 nM | 0.821 nM | CC(C)(O)c1ccc(-c2cc3c(-c4ccc(OC5CCOCC5)c(C#N)c4)ncnc3[nH]2)cc1 [Example 109, 5-(6-(4-(2-hydroxypropan-2-yl)phenyl)-7H-pyrrolo[2,3-d]pyrimidin-4-yl)-2-((tetrahydro-2H-pyran-4-yl)oxy)benzonitrile] |
| 3.72 nM | 1.9 nM | N#Cc1cc(-c2ccnc3[nH]c(-c4ccc(N5CCOCC5)cc4)cc23)ccc1OC1CCN(C(=O)CO)CC1 [Example 19, 2-((1-(2-hydroxyacetyl)piperidin-4-yl)oxy)-5-(2-(4-morpholinophenyl)-1H-pyrrolo[2,3-b]pyridin-4-yl)benzonitrile] |
| 2.45 nM | 1.34 nM | N#Cc1cc(-c2ccnc3[nH]c(-c4ccc(N5CCOCC5)cc4)cc23)ccc1O[C@@H]1CCN(C(=O)CO)C1 [Example 15, (R)-2-((1-(2-hydroxyacetyl)pyrrolidin-3-yl)oxy)-5-(2-(4-morpholinophenyl)-1H-pyrrolo[2,3-b]pyridin-4-yl)benzonitrile] |
| 2.04 nM | 3.33 nM | N#Cc1cc(-c2ncnc3[nH]c(-c4ccc(OCCN5CCCC5)cc4)nc23)ccc1OC1CCN(C(=O)CO)CC1 [Example 233, 2-((1-(2-hydroxyacetyl)piperidin-4-yl)oxy)-5-(8-(4-(2-(pyrrolidin-1-yl)ethoxy)phenyl)-9H-purin-6-yl)benzonitrile] |
| 1.44 nM | 1.81 nM | N#Cc1cc(-c2ccnc3[nH]c(-c4ccc(N5CCN(C6COC6)CC5)cc4)cc23)ncc1OC1CCN(C(=O)CO)CC1(F)F (stereo not drawn) [Example 176, 5-((3,3-difluoro-1-(2-hydroxyacetyl)piperidin-4-yl)oxy)-2-(2-(4-(4-(oxetan-3-yl)piperazin-1-yl)phenyl)-1H-pyrrolo[2,3-b]pyridin-4-yl)isonicotinonitrile] |
